Results published in ChEMBL document CHEMBL5518192, “Targeting aromatase to restrain oestrogen production and developing efficacious interventions against ER-positive cancer” (Eur J Med Chem, 2024).

molecular target: T1, Aromatase (Homo sapiens, UniProt P11511); assay: Binding affinity to human aromatase assessed as hyperchromic shift by measuring increase in absorbance intensity at 5 uM by UV-Vis spectral analysis; conditions: not given
T1 sequence (P11511 whole entry): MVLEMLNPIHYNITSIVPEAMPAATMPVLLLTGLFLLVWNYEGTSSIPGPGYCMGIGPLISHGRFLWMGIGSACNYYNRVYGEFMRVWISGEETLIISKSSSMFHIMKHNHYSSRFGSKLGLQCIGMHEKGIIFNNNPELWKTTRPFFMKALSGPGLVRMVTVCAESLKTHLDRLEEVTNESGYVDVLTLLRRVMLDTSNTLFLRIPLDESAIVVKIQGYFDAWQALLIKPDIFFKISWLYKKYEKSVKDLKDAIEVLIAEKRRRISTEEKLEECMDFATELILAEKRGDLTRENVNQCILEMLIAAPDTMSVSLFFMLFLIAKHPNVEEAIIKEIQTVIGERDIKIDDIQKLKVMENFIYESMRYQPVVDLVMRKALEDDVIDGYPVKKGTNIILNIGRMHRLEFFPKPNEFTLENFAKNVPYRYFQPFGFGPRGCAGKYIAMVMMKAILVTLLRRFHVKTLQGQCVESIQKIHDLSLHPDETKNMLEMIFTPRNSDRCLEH

Row | Compound | Activity
1 | CCOC(=O)C(=O)c1cn(CCCCCNc2ccc(C(=C(C)c3ccccc3)c3ccccc3)cc2)c2ccccc12 | Active

molecular target: T1, Aromatase; assay: Binding affinity to human aromatase assessed as binding constant by Benesi-Hildebrand equation based analysis; conditions: not given

Row | Compound | Ka
2 | CCOC(=O)C(=O)c1cn(CCCCCNc2ccc(C(=C(C)c3ccccc3)c3ccccc3)cc2)c2ccccc12 | 5.5 10^4/M

test system: T47D; assay: cells; conditions: Homo sapiens, 48 h, read-out: GI; call rule not given here

Row | Compound | inhibition of growth at 10 µM
3 | CC(=C(c1ccccc1)c1ccc(NCCn2cc(C(=O)C(=O)O)c3ccccc32)cc1)c1ccccc1 | 38.9%
4 | CCOC(=O)C(=O)c1cn(CCCCNc2ccc(C(=C(C)c3ccccc3)c3ccccc3)cc2)c2ccccc12 | 5.76%
5 | CC(=C(c1ccccc1)c1ccc(NCCCCCn2cc(C(=O)C(=O)O)c3ccccc32)cc1)c1ccccc1 | 13%
6 | CCOC(=O)C(=O)c1cn(CCCNc2ccc(C(=C(C)c3ccccc3)c3ccccc3)cc2)c2ccccc12 | 41%
7 | CC(=C(c1ccccc1)c1ccc(NCCCCn2cc(C(=O)C(=O)O)c3ccccc32)cc1)c1ccccc1 | 13.7%
8 | CCOC(=O)C(=O)c1cn(CCCCCNc2ccc(C(=C(C)c3ccccc3)c3ccccc3)cc2)c2ccccc12 | 30.1%

molecular target: T1, Aromatase; assay: Binding affinity to human aromatase assessed as change in free energy; conditions: not given

Row | Compound | deltaG
9 | CCOC(=O)C(=O)c1cn(CCCCCNc2ccc(C(=C(C)c3ccccc3)c3ccccc3)cc2)c2ccccc12 | -6.72 kcal/mol

test system: not listed separately; assay: in vitro; conditions: human, plasma
Description: Stability in human plasma assessed drug degradation at 50 uM measured after 120 mins by spectrometer

Row | Compound | metabolised at 2 h, 50 µM
10 | CCOC(=O)C(=O)c1cn(CCCCCNc2ccc(C(=C(C)c3ccccc3)c3ccccc3)cc2)c2ccccc12 | 15.5%

molecular target: T1, Aromatase; assay: Competitive inhibition of human aromatase using varying concentrations of androstenedione as substrate assessed as […] in Km with constant Vmax at 10 uM by Lineweaver-Burk equation based analysis; conditions: not given

Row | Compound | inhibition (INH)
11 | CCOC(=O)C(=O)c1cn(CCCCCNc2ccc(C(=C(C)c3ccccc3)c3ccccc3)cc2)c2ccccc12 | Active

test system: MCF7; assay: cells; conditions: Homo sapiens, MCF7, 48 h, read-out: GI

Row | Compound | inhibition of growth at 10 µM
12 | CC(=C(c1ccccc1)c1ccc(NCCn2cc(C(=O)C(=O)O)c3ccccc32)cc1)c1ccccc1 | 47.3%
13 | CC/C(=C(\c1ccccc1)c1ccc(OCCN(C)C)cc1)c1ccccc1 [TAMOXIFEN] | -10.3%
14 | CCOC(=O)C(=O)c1cn(CCCNc2ccc(C(=C(C)c3ccccc3)c3ccccc3)cc2)c2ccccc12 | 10.9%
15 | CC(=C(c1ccccc1)c1ccc(NCCCCn2cc(C(=O)C(=O)O)c3ccccc32)cc1)c1ccccc1 | 14.3%
16 | CCOC(=O)C(=O)c1cn(CCCCCNc2ccc(C(=C(C)c3ccccc3)c3ccccc3)cc2)c2ccccc12 | 8.48%

test system: not listed separately; assay: physchem; conditions: octanol/water
Description: Octanol/water partition coefficient, log P of the compound

Row | Compound | logP
17 | CC(=C(c1ccccc1)c1ccc(NCCCCCCn2cc(C(=O)C(=O)O)c3ccccc32)cc1)c1ccccc1 | 5.15
18 | N#Cc1ccc(C(c2ccc(C#N)cc2)n2cncn2)cc1 [LETROZOLE] | 2.29
19 | C/C(=C(\c1ccccc1)c1ccc(NCCCCCn2cc(C(=O)C(=O)O)c3ccccc32)cc1)c1cccc(Br)c1 | 5.33
20 | CCOC(=O)C(=O)c1cn(CCCCCNc2ccc(/C(=C(/C)c3cccc(Br)c3)c3ccccc3)cc2)c2ccccc12 | 5.16
21 | CC(=C(c1ccccc1)c1ccc(NCCn2cc(C(=O)C(=O)O)c3ccccc32)cc1)c1ccccc1 | 4.43
22 | C/C(=C(\c1ccccc1)c1ccc(NCCCCn2cc(C(=O)C(=O)O)c3ccccc32)cc1)c1cccc(Br)c1 | 5.15
23 | CCOC(=O)C(=O)c1cn(CCCCCCNc2ccc(C(=C(C)c3ccccc3)c3ccccc3)cc2)c2ccccc12 | 4.98
24 | CCOC(=O)C(=O)c1cn(CCCCNc2ccc(C(=C(C)c3ccccc3)c3ccccc3)cc2)c2ccccc12 | 4.63
25 | CCOC(=O)C(=O)c1cn(CCCCCNc2ccc(/C(=C(/C)c3ccccc3OC)c3ccccc3)cc2)c2ccccc12 | 4.31
26 | CC(=C(c1ccccc1)c1ccc(NCCCCCn2cc(C(=O)C(=O)O)c3ccccc32)cc1)c1ccccc1 | 4.97
27 | CCOC(=O)C(=O)c1cn(CCCNc2ccc(C(=C(C)c3ccccc3)c3ccccc3)cc2)c2ccccc12 | 4.46
28 | CC(=C(c1ccccc1)c1ccc(NCCCCn2cc(C(=O)C(=O)O)c3ccccc32)cc1)c1ccccc1 | 4.79
29 | CCOC(=O)C(=O)c1cn(CCCCNc2ccc(/C(=C(/C)c3ccccc3OC)c3ccccc3)cc2)c2ccccc12 | 4.13
30 | COc1ccccc1/C(C)=C(/c1ccccc1)c1ccc(NCCCCn2cc(C(=O)C(=O)O)c3ccccc32)cc1 | 4.29
31 | CCOC(=O)C(=O)c1cn(CCNc2ccc(C(=C(C)c3ccccc3)c3ccccc3)cc2)c2ccccc12 | 4.28
32 | CCOC(=O)C(=O)c1cn(CCCCNc2ccc(/C(=C(/C)c3cccc(Br)c3)c3ccccc3)cc2)c2ccccc12 | 4.99
33 | CC(=C(c1ccccc1)c1ccc(NCCCn2cc(C(=O)C(=O)O)c3ccccc32)cc1)c1ccccc1 | 4.61
34 | COc1ccccc1/C(C)=C(/c1ccccc1)c1ccc(NCCCCCn2cc(C(=O)C(=O)O)c3ccccc32)cc1 | 4.46
35 | CCOC(=O)C(=O)c1cn(CCCCCNc2ccc(C(=C(C)c3ccccc3)c3ccccc3)cc2)c2ccccc12 | 4.81

test system: Hs-578T; assay: cells; conditions: Homo sapiens, 48 h, read-out: GI

Row | Compound | inhibition of growth at 10 µM
36 | CC(=C(c1ccccc1)c1ccc(NCCn2cc(C(=O)C(=O)O)c3ccccc32)cc1)c1ccccc1 | 46.4%
37 | CC/C(=C(\c1ccccc1)c1ccc(OCCN(C)C)cc1)c1ccccc1 [TAMOXIFEN] | 39.5%
38 | CC(=C(c1ccccc1)c1ccc(NCCCCCn2cc(C(=O)C(=O)O)c3ccccc32)cc1)c1ccccc1 | 12.4%
39 | CC(=C(c1ccccc1)c1ccc(NCCCCn2cc(C(=O)C(=O)O)c3ccccc32)cc1)c1ccccc1 | 60.2%
40 | CC(=C(c1ccccc1)c1ccc(NCCCn2cc(C(=O)C(=O)O)c3ccccc32)cc1)c1ccccc1 | 14.1%
41 | CCOC(=O)C(=O)c1cn(CCCCCNc2ccc(C(=C(C)c3ccccc3)c3ccccc3)cc2)c2ccccc12 | 6.04%

molecular target: T2, Albumin (Homo sapiens, UniProt P02768); assay: Binding affinity to human serum albumin assessed as binding constant by spectrophotometer; format: ADME; conditions: isolated protein
T2 sequence (P02768 whole entry): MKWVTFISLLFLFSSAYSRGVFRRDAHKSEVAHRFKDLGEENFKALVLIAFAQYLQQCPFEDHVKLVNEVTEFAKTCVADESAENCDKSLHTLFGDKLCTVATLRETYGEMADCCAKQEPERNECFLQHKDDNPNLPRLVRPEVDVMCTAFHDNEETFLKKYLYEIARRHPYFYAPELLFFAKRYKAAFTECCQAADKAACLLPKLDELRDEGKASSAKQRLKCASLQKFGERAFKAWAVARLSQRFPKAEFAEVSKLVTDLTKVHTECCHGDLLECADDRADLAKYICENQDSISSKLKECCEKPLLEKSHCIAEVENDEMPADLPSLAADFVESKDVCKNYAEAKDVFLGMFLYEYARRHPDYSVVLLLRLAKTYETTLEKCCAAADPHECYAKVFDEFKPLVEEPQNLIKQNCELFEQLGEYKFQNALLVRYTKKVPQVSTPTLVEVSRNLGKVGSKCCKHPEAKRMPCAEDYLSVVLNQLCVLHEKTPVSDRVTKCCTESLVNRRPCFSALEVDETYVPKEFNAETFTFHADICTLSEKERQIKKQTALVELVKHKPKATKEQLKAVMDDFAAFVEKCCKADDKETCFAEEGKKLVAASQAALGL

Row | Compound | Ka
42 | CCOC(=O)C(=O)c1cn(CCCCCNc2ccc(C(=C(C)c3ccccc3)c3ccccc3)cc2)c2ccccc12 | 2.8 10^4/M

molecular target: T1, Aromatase; assay: not given; conditions: not given

Row | Compound | IC50
43 | C/C(=C(\c1ccccc1)c1ccc(NCCCCCn2cc(C(=O)C(=O)O)c3ccccc32)cc1)c1cccc(Br)c1 | 800 nM
44 | CCOC(=O)C(=O)c1cn(CCCCCNc2ccc(/C(=C(/C)c3cccc(Br)c3)c3ccccc3)cc2)c2ccccc12 | 790 nM
45 | CC(=C(c1ccccc1)c1ccc(NCCn2cc(C(=O)C(=O)O)c3ccccc32)cc1)c1ccccc1 | 9730 nM
46 | C/C(=C(\c1ccccc1)c1ccc(NCCCCn2cc(C(=O)C(=O)O)c3ccccc32)cc1)c1cccc(Br)c1 | 6800 nM
47 | CCOC(=O)C(=O)c1cn(CCCCCCNc2ccc(C(=C(C)c3ccccc3)c3ccccc3)cc2)c2ccccc12 | 1940 nM
48 | CCOC(=O)C(=O)c1cn(CCCCNc2ccc(C(=C(C)c3ccccc3)c3ccccc3)cc2)c2ccccc12 | 500 nM
49 | CCOC(=O)C(=O)c1cn(CCCCCNc2ccc(/C(=C(/C)c3ccccc3OC)c3ccccc3)cc2)c2ccccc12 | 133 nM
50 | CC(=C(c1ccccc1)c1ccc(NCCCCCn2cc(C(=O)C(=O)O)c3ccccc32)cc1)c1ccccc1 | 3170 nM
51 | CCOC(=O)C(=O)c1cn(CCCNc2ccc(C(=C(C)c3ccccc3)c3ccccc3)cc2)c2ccccc12 | 650 nM
52 | CC(=C(c1ccccc1)c1ccc(NCCCCn2cc(C(=O)C(=O)O)c3ccccc32)cc1)c1ccccc1 | 1370 nM
53 | CCOC(=O)C(=O)c1cn(CCCCNc2ccc(/C(=C(/C)c3ccccc3OC)c3ccccc3)cc2)c2ccccc12 | 3200 nM
54 | COc1ccccc1/C(C)=C(/c1ccccc1)c1ccc(NCCCCn2cc(C(=O)C(=O)O)c3ccccc32)cc1 | 550 nM
55 | CCOC(=O)C(=O)c1cn(CCNc2ccc(C(=C(C)c3ccccc3)c3ccccc3)cc2)c2ccccc12 | 1390 nM
56 | CCOC(=O)C(=O)c1cn(CCCCNc2ccc(/C(=C(/C)c3cccc(Br)c3)c3ccccc3)cc2)c2ccccc12 | 3860 nM
57 | CC(=C(c1ccccc1)c1ccc(NCCCn2cc(C(=O)C(=O)O)c3ccccc32)cc1)c1ccccc1 | 178 nM
58 | COc1ccccc1/C(C)=C(/c1ccccc1)c1ccc(NCCCCCn2cc(C(=O)C(=O)O)c3ccccc32)cc1 | 12300 nM
59 | CCOC(=O)C(=O)c1cn(CCCCCNc2ccc(C(=C(C)c3ccccc3)c3ccccc3)cc2)c2ccccc12 | 54 nM

test system: MDA-MB-231; assay: Growth inhibition of estrogen receptor negative human MDA-MB-231 cells at 10 uM incubated for 48 hrs by SRB assay relative to control; format: functional; conditions: read-out: GI

Row | Compound | inhibition of growth at 10 µM
60 | CC(=C(c1ccccc1)c1ccc(NCCn2cc(C(=O)C(=O)O)c3ccccc32)cc1)c1ccccc1 | 13.3%
61 | CC/C(=C(\c1ccccc1)c1ccc(OCCN(C)C)cc1)c1ccccc1 [TAMOXIFEN] | 54.8%
62 | CCOC(=O)C(=O)c1cn(CCCNc2ccc(C(=C(C)c3ccccc3)c3ccccc3)cc2)c2ccccc12 | 13.6%
63 | CCOC(=O)C(=O)c1cn(CCCCCNc2ccc(C(=C(C)c3ccccc3)c3ccccc3)cc2)c2ccccc12 | 18.2%

molecular target: T1, Aromatase; assay: Binding affinity to human aromatase assessed as inhibition constant by Cheng-Prosuff equation based analysis; conditions: not given

Row | Compound | Ki
64 | CCOC(=O)C(=O)c1cn(CCCCCNc2ccc(C(=C(C)c3ccccc3)c3ccccc3)cc2)c2ccccc12 | 26 nM

test system: MDA-MB-468; assay: Growth inhibition of estrogen receptor negative human MDA-MB-468 cells at 10 uM incubated for 48 hrs by SRB assay relative to control; format: functional; conditions: read-out: GI

Row | Compound | inhibition of growth at 10 µM
65 | CC(=C(c1ccccc1)c1ccc(NCCn2cc(C(=O)C(=O)O)c3ccccc32)cc1)c1ccccc1 | 55.1%
66 | CC/C(=C(\c1ccccc1)c1ccc(OCCN(C)C)cc1)c1ccccc1 [TAMOXIFEN] | -13.3%
67 | CC(=C(c1ccccc1)c1ccc(NCCCCCn2cc(C(=O)C(=O)O)c3ccccc32)cc1)c1ccccc1 | 7.71%
68 | CC(=C(c1ccccc1)c1ccc(NCCCCn2cc(C(=O)C(=O)O)c3ccccc32)cc1)c1ccccc1 | 12.9%
69 | CCOC(=O)C(=O)c1cn(CCCCCNc2ccc(C(=C(C)c3ccccc3)c3ccccc3)cc2)c2ccccc12 | 24.3%

test system: BT-549; assay: cells; conditions: Homo sapiens, BT-549, 48 h, read-out: GI

Row | Compound | inhibition of growth at 10 µM
70 | CC(=C(c1ccccc1)c1ccc(NCCn2cc(C(=O)C(=O)O)c3ccccc32)cc1)c1ccccc1 | 32.5%
71 | CC/C(=C(\c1ccccc1)c1ccc(OCCN(C)C)cc1)c1ccccc1 [TAMOXIFEN] | 30.2%
72 | CC(=C(c1ccccc1)c1ccc(NCCCCn2cc(C(=O)C(=O)O)c3ccccc32)cc1)c1ccccc1 | 40.2%
73 | CC(=C(c1ccccc1)c1ccc(NCCCn2cc(C(=O)C(=O)O)c3ccccc32)cc1)c1ccccc1 | 14.8%

molecular target: T2, Albumin; assay: Binding affinity to human serum albumin phosphate buffer at pH 7.4 assessed as conformational change in HSA by measuring increase in absorbance at 20 uM by UV-Vis absorption spectrum based analysis; format: ADME; conditions: isolated protein, pH 7.4, 20 µM

Row | Activity | Compound
74 | Active | CCOC(=O)C(=O)Nc1ccc(/C(=C(/C)c2ccc(OC)cc2)c2ccccc2)cc1
75 | Active | CCOC(=O)C(=O)Nc1ccc(/C(=C(/C)c2ccc(Cl)cc2)c2ccccc2)cc1

Row | Compound | Activity
76 | CCOC(=O)C(=O)c1cn(CCCCCNc2ccc(C(=C(C)c3ccccc3)c3ccccc3)cc2)c2ccccc12 | Active
